Measurements: patent US7138361B2, “Herbicidal heterocycles” (E. I. du Pont de Nemours and Company, priority 2000, dated 2006)

Experiments:
Experiment in all cases: Test C postemergence
Type in all cases: in vivo
[1] = system: Surinam grass (Brachiaria decumbens)
Procedure, shortened: (§1)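 Seeds are planted and treated before emergence; for the postemergence test, plants at 1- to 4-leaf stage (2–18 cm) receive the same formulation, a solvent blend containing surfactant. Plants stay in the greenhouse 12–14 days, then response is scored visually from 0 (none) to 100 (complete control).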

[2] = system: bermudagrass (Cynodon dactylon)
Procedure, shortened: as §1

[3] = system: chickweed (Stellaria media)
Procedure, shortened: as §1

[4] = system: giant foxtail (Setaria faberii)
Procedure, shortened: as §1

[5] = system: goosegrass (Eleusine indica)
Procedure, shortened: as §1

[6] = system: johnsongrass (Sorghum halepense)
Procedure, shortened: as §1

kochia (Kochia scoparia) = system: kochia (Kochia scoparia)
Procedure, shortened: as §1

[7] = system: lambsquarters (Chenopodium album)
Procedure, shortened: as §1

[8] = system: morningglory (Ipomoea hederacea)
Procedure, shortened: as §1

[9] = system: pigweed (Amaranthus retroflexus)
Procedure, shortened: as §1

soybean (Glycine max) = system: soybean (Glycine max)
Procedure, shortened: as §1

[10] = system: velvetleaf (Abutilon theophrasti)
Procedure, shortened: as §1

[11] = system: woolly cupgrass (Eriochloa villosa)
Procedure, shortened: as §1

[12] = system: yellow nutsedge (Cyperus esculentus)
Procedure, shortened: as §1

[13] = Rate 62 g/ha, scale 0 to 100, 0 no effect, 100 complete control
[14] = Rate 125 g/ha, scale 0 to 100, 0 no effect, 100 complete control
[15] = Rate 250 g/ha, scale 0 to 100 (0 no effect, 100 complete control)
[16] = Rate 500 g/ha, scale 0 to 100 (0 no effect, 100 complete control)

## CC(C)(C)c1ccn(C2SCN(c3cccc(OC(F)(F)F)c3)C2=O)n1 (stereo not drawn) [Compound 30]
[1]; [13]
  Plant response rating, Surinam grass: 0
[1]; [14]
  Plant response rating, Surinam grass: 0
[1]; [15]
  Plant response rating, Surinam grass: 0
[1]; [16]
  Plant response rating, Surinam grass: 60
[2]; [13]
  Plant response rating, Bermudagrass: 70
[2]; [14]
  Plant response rating, Bermudagrass: 80
[2]; [15]
  Plant response rating, Bermudagrass: 80
[2]; [16]
  Plant response rating, Bermudagrass: 90
[3]; [13]
  Plant response rating, Chickweed: 50
[3]; [14]
  Plant response rating, Chickweed: 60
[3]; [15]
  Plant response rating, Chickweed: 70
[3]; [16]
  Plant response rating, Chickweed: 90
[4]; [14]
  Plant response rating, Foxtail, Giant: 0
[4]; [15]
  Plant response rating, Foxtail, Giant: 30
[4]; [16]
  Plant response rating, Foxtail, Giant: 80
[5]; [14]
  Plant response rating, Goosegrass: 0
[5]; [15]
  Plant response rating, Goosegrass: 30
[5]; [16]
  Plant response rating, Goosegrass: 40
[6]; [14]
  Plant response rating, Johnsongrass: 0
[6]; [15]
  Plant response rating, Johnsongrass: 0
[6]; [16]
  Plant response rating, Johnsongrass: 90
Kochia (Kochia scoparia); [14]
  Plant response rating, Kochia: 70
Kochia (Kochia scoparia); [15]
  Plant response rating, Kochia: 70
Kochia (Kochia scoparia); [16]
  Plant response rating, Kochia: 90
[7]; [14]
  Plant response rating, Lambsquarters: 90
[7]; [15]
  Plant response rating, Lambsquarters: 90
[7]; [16]
  Plant response rating, Lambsquarters: 90
[8]; [14]
  Plant response rating, Morningglory: 0
[8]; [15]
  Plant response rating, Morningglory: 40
[8]; [16]
  Plant response rating, Morningglory: 40
[9]; [14]
  Plant response rating, Pigweed: 80
[9]; [15]
  Plant response rating, Pigweed: 90
[9]; [16]
  Plant response rating, Pigweed: 100
Soybean (Glycine max); [14]
  Plant response rating, Soybean: 0
Soybean (Glycine max); [15]
  Plant response rating, Soybean: 0
Soybean (Glycine max); [16]
  Plant response rating, Soybean: 0
[10]; [14]
  Plant response rating, Velvetleaf: 30
[10]; [15]
  Plant response rating, Velvetleaf: 50
[10]; [16]
  Plant response rating, Velvetleaf: 60
[11]; [14]
  Plant response rating, Cupgrass, Woolly: 30
[11]; [15]
  Plant response rating, Cupgrass, Woolly: 40
[11]; [16]
  Plant response rating, Cupgrass, Woolly: 80
[12]; [14]
  Plant response rating, Nutsedge: 0
[12]; [15]
  Plant response rating, Nutsedge: 0
[12]; [16]
  Plant response rating, Nutsedge: 0
